Results taken from patent US20150291598A1 (NOVARTIS AG, priority 2012, published 2015).

system: P. falciparum (NF54 or 3D7 strain); assay: Assay for P. falciparum proliferation in infected human blood cells (SYBR Green); format: cell-based, Plasmodium falciparum; conditions: NF54 or 3D7 infected human erythrocytes, 72 hours; read-out: EC50 (nM), inhibitory efficacy in delaying P. falciparum proliferation in infected human blood cells
How it was run: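 Infected erythrocytes (NF54 or 3D7; final 2.5% hematocrit, 0.3% parasitemia) were incubated with compounds for 72 h at 37 °C in low oxygen (3% O2, 4% CO2, 93% N2).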

| EC50 [nM] | SMILES |
| --- | --- |
| 24 | CN(C(=O)c1cn2c(-c3ccc4c(cnn4C)c3)cnc2cn1)c1ccc(F)cc1 [Compound 106, N-(4-fluorophenyl)-N-methyl-3-(1-methyl-1H-indazol-5-yl)imidazo[1,2-a]pyrazine-6-carboxamide] |
| 218 | CN(C(=O)c1cn2c(-c3ccc4c(cnn4C)c3)cnc2cn1)c1ccc(F)cc1 [Compound 107, N-(4-fluorophenyl)-N-methyl-3-(1-methyl-1H-indazol-5-yl)imidazo[1,2-a]pyrazine-6-carboxamide] |

same assay, conditions: Plasmodium falciparum, Erythrocyte, 72 h, NF54 or 3D7 infected human erythrocytes, 72 hours; read-out: EC50 (nM), inhibitory efficacy in delaying P. falciparum proliferation in infected human blood cells

| SMILES | EC50 [nM] |
| --- | --- |
| COc1ccc(-c2cnc3cnc(C(=O)N(C)c4ccc(Cl)nc4)cn23)cc1 [Compound 100, N-(6-chloropyridin-3-yl)-3-(4-methoxyphenyl)-N-methylimidazo[1,2-a]pyrazine-6-carboxamide] | 297 |
| CN(C(=O)c1cn2c(-c3ccc(OC(F)(F)F)cc3)cnc2cn1)c1ccc(C#N)cc1 [Compound 116, -(4-cyanophenyl)-N-methyl-3-[4-(trifluoromethoxy)phenyl]imidazo[1,2-a]pyrazine-6-carboxamide] | 230 |
| CN(C(=O)c1cn2c(-c3ccc(C(F)(F)F)cc3)cnc2cn1)c1ccccc1F [Compound 119, N-(2-fluorophenyl)-N-methyl-3-[4-(trifluoromethyl)phenyl]imidazo[1,2-a]pyrazine-6-carboxamide] | 507 |
| CN(C)c1ccc(-c2cnc3cnc(C(=O)N(C)c4ccc(F)cc4)cn23)cc1 [Compound 121, 3-[4-(dimethylamino)phenyl]-N-(4-fluorophenyl)-N-methylimidazo[1,2-a]pyrazine-6-carboxamide] | 259 |
| CN(C)c1ccc(-c2cnc3cnc(C(=O)N(C)c4ccc(Cl)cc4)cn23)cc1 [Compound 122, N-(4-chlorophenyl)-3-[4-(dimethylamino)phenyl]-N-methylimidazo[1,2-a]pyrazine-6-carboxamide] | 266 |
| CN(C(=O)c1cn2c(-c3ccc4c(ccn4C)c3)cnc2cn1)c1ccc(C#N)cc1 [Compound 123, N-(4-cyanophenyl)-N-methyl-3-(1-methyl-1H-indol-5-yl)imidazo[1,2-a]pyrazine-6-carboxamide] | 387 |
| CN(C(=O)c1cn2c(-c3ccc(N)cc3)cnc2cn1)c1ccc(C#N)cc1 [Compound 124, 3-(4-aminophenyl)-N-(4-cyanophenyl)-N-methylimidazo[1,2-a]pyrazine-6-carboxamide] | 217 |
| CN(C(=O)c1cn2c(-c3ccc(-c4ccco4)cc3)cnc2cn1)c1ccc(C#N)cc1 [Compound 125, N-(4-cyanophenyl)-3-[4-(furan-2-yl)phenyl]-N-methylimidazo[1,2-a]pyrazine-6-carboxamide] | 369 |
| CN(C(=O)c1cn2c(-c3ccc4c(ccn4C)c3)cnc2cn1)c1ccc(F)c(F)c1 [Compound 127, N-(3,4-difluorophenyl)-N-methyl-3-(1-methyl-1H-indol-5-yl)imidazo[1,2-a]pyrazine-6-carboxamide] | 236 |
| CS(=O)(=O)c1ccc(NC(=O)c2cn3c(-c4ccc(C(F)(F)F)cc4)cnc3cn2)cc1 [Compound 128, N-(4-methanesulfonylphenyl)-3-[4-(trifluoromethyl)phenyl]imidazo[1,2-a]pyrazine-6-carboxamide] | > 10000 |
| CN(C(=O)c1cn2c(-c3ccc(S(C)(=O)=O)cc3)cnc2cn1)c1ccc(C#N)cc1 [Compound 129, N-(4-cyanophenyl)-3-(4-methanesulfonylphenyl)-N-methylimidazo[1,2-a]pyrazine-6-carboxamide] | 800 |
| CN(C(=O)c1cn2c(-c3ccc(Cl)cc3)cnc2cn1)c1ccc(C#N)cc1 [Compound 132, 3-(4-chlorophenyl)-N-(4-cyanophenyl)-N-methylimidazo[1,2-a]pyrazine-6-carboxamide] | 206 |
| N#Cc1ccc(N(CCC2CCOCC2)C(=O)c2cn3c(-c4ccc(C(F)(F)F)cc4)cnc3cn2)cc1 [Compound 133, N-(4-cyanophenyl)-N-[2-(oxan-4-yl)ethyl]-3-[4-(trifluoromethyl)phenyl]imidazo[1,2-a]pyrazine-6-carboxamide] | 338 |
| CC(=O)c1ccc(-c2cnc3cnc(C(=O)N(C)c4ccc(C#N)cc4)cn23)cc1 [Compound 134, 3-(4-acetylphenyl)-N-(4-cyanophenyl)-N-methylimidazo[1,2-a]pyrazine-6-carboxamide] | 490 |
| CN(C(=O)c1cn2c(-c3ccc4c(ccn4C)c3)cnc2cn1)c1ccc(F)cc1 [Compound 136, N-(4-fluorophenyl)-N-methyl-3-(1-methyl-1H-indol-5-yl)imidazo[1,2-a]pyrazine-6-carboxamide] | 320 |

Now from value to compound:

| EC50 [nM] | SMILES |
| --- | --- |
| 33 | CN(C(=O)c1cn2c(-c3ccc(C(F)(F)F)cc3)cnc2cn1)c1ccc(F)cc1 [Compound 101, N-(4-fluorophenyl)-N-methyl-3-[4-(trifluoromethyl)phenyl]imidazo[1,2-a]pyrazine-6-carboxamide] |
| 53 | CN(C(=O)c1cn2c(-c3ccc(OC(F)F)cc3)cnc2cn1)c1ccc(Cl)cc1 [Compound 102, N-(4-chlorophenyl)-3-[4-(difluoromethoxy)phenyl]-N-methylimidazo[1,2-a]pyrazine-6-carboxamide] |
| 51 | CN(C(=O)c1cn2c(-c3ccc(Cl)cc3)cnc2cn1)c1ccc(F)cc1 [Compound 103, 3-(4-chlorophenyl)-N-(4-fluorophenyl)-N-methylimidazo[1,2-a]pyrazine-6-carboxamide] |
| 57 | CN(C(=O)c1cn2c(-c3ccc(C(N)=O)cc3)cnc2cn1)c1ccc(C#N)cc1 [Compound 104, 3-(4-carbamoylphenyl)-N-(4-cyanophenyl)-N-methylimidazo[1,2-a]pyrazine-6-carboxamide] |
| 41 | CN(C(=O)c1cn2c(-c3ccc(C(F)(F)F)cc3)cnc2cn1)c1ccc(F)c(F)c1 [Compound 105, N-(3,4-difluorophenyl)-N-methyl-3-[4-(trifluoromethyl)phenyl]imidazo[1,2-a]pyrazine-6-carboxamide] |
| 110 | Cc1ccc(-c2cnc3cnc(C(=O)N(C)c4ccc(F)cc4)cn23)cc1 [Compound 108, N-(4-fluorophenyl)-N-methyl-3-(4-methylphenyl)imidazo[1,2-a]pyrazine-6-carboxamide] |
| 120 | CN(C(=O)c1cn2c(-c3ccc(Cl)cc3)cnc2cn1)c1ccc(Cl)cc1 [Compound 109, N,3-bis(4-chlorophenyl)-N-methylimidazo[1,2-a]pyrazine-6-carboxamide] |
| 188 | COc1ccccc1N(C)C(=O)c1cn2c(-c3ccc(C(F)(F)F)cc3)cnc2cn1 [Compound 110, N-(2-methoxyphenyl)-N-methyl-3-[4-(trifluoromethyl)phenyl]imidazo[1,2-a]pyrazine-6-carboxamide] |
| 128 | O=C(c1cn2c(-c3ccc(C(F)(F)F)cc3)cnc2cn1)N1CCCc2cc(F)ccc21 [Compound 111, 6-fluoro-1-({3-[4-(trifluoromethyl)phenyl]imidazo[1,2-a]pyrazin-6-yl}carbonyl)-1,2,3,4-tetrahydroquinoline] |
| 103 | CN(C(=O)c1cn2c(-c3ccc(Cl)cc3)cnc2cn1)c1ccc(F)c(F)c1 [Compound 112, 3-(4-chlorophenyl)-N-(3,4-difluorophenyl)-N-methylimidazo[1,2-a]pyrazine-6-carboxamide] |
| 81 | Cc1ccc(-c2cnc3cnc(C(=O)N(C)c4ccc(C#N)cc4)cn23)cc1 [Compound 113, N-(4-cyanophenyl)-N-methyl-3-(4-methylphenyl)imidazo[1,2-a]pyrazine-6-carboxamide] |
| 76 | CCN(C(=O)c1cn2c(-c3ccc(C(F)(F)F)cc3)cnc2cn1)c1ccc(C#N)cc1 [Compound 114, N-(4-cyanophenyl)-N-ethyl-3-[4-(trifluoromethyl)phenyl]imidazo[1,2-a]pyrazine-6-carboxamide] |
| 82 | CC(C)c1ccc(-c2cnc3cnc(C(=O)N(C)c4ccc(C#N)cc4)cn23)cc1 [Compound 115, N-(4-cyanophenyl)-N-methyl-3-[4-(propan-2-yl)phenyl]imidazo[1,2-a]pyrazine-6-carboxamide] |
| 92 | CNc1ccc(-c2cnc3cnc(C(=O)N(C)c4ccc(C#N)cc4)cn23)cc1 [Compound 117, N-(4-cyanophenyl)-N-methyl-3-[4-(methylamino)phenyl]imidazo[1,2-a]pyrazine-6-carboxamide] |
| 135 | CN(C(=O)c1cn2c(-c3ccc(C(C)(C)C)cc3)cnc2cn1)c1ccc(C#N)cc1 [Compound 118, 3-(4-tert-butylphenyl)-N-(4-cyanophenyl)-N-methylimidazo[1,2-a]pyrazine-6-carboxamide] |
| 147 | CN(C(=O)c1cn2c(-c3ccc(C(C)(C)C#N)cc3)cnc2cn1)c1ccc(C#N)cc1 [Compound 120, -[4-(1-cyano-1-methylethyl)phenyl]-N-(4-cyanophenyl)-N-methylimidazo[1,2-a]pyrazine-6-carboxamide] |
| 125 | CN(C(=O)c1cn2c(-c3ccc(C(F)(F)F)cc3)cnc2cn1)c1ccc(C#N)c(F)c1 [Compound 126, N-(4-cyano-3-fluorophenyl)-N-methyl-3-[4-(trifluoromethyl)phenyl]imidazo[1,2-a]pyrazine-6-carboxamide] |
| 176 | COC(C)c1ccc(-c2cnc3cnc(C(=O)N(C)c4ccc(C#N)cc4)cn23)cc1 (stereo not shown) [Compound 130, N-(4-cyanophenyl)-3-[4-(1-methoxyethyl)phenyl]-N-methylimidazo[1,2-a]pyrazine-6-carboxamide] |
| 140 | CN(C(=O)c1cn2c(-c3ccc(-c4ccn[nH]4)cc3)cnc2cn1)c1ccc(S(C)(=O)=O)cc1 [Compound 131, N-(4-methanesulfonylphenyl)-N-methyl-3-[4-(1H-pyrazol-5-yl)phenyl]imidazo[1,2-a]pyrazine-6-carboxamide] |
| 81 | Cc1ccc(-c2cnc3cnc(C(=O)N(C)c4ccc(F)c(F)c4)cn23)cc1 [Compound 135, N-(3,4-difluorophenyl)-N-methyl-3-(4-methylphenyl)imidazo[1,2-a]pyrazine-6-carboxamide] |
